# Reference: US6440980B1, “Synergistic inhibition of viral replication by long-chain hydrocarbons and nucleoside analogs” (Avanir Pharmaceuticals, priority 1996, dated 2002)
# Read-outs that look alike come from different tables or passages of the source.
# How the values were obtained:
# HSV-2 [1] = assay: Cutaneous HSV-2 model in hairless guinea pigs, combination cream (Example 15); type: in vivo; conditions: 96 hours post-HSV-2-inoculation; cream two times daily; untreated mean 27 vesicles
# HSV-1 [2] = assay: HSV-1 PFU production in Vero cell cultures; type: cell-based, HSV-1 (MacIntyre strain)
# [3] = test system: Varicella Zoster Virus (VZV); assay: VZV infectious center assay in MRC-5 cells; type: cell-based, human varicella zoster virus (Ellen strain); conditions: for EC50: Human alphaherpesvirus 3, MRC5, read-out: ACV Efficacy EC50 (μM), VZV; for EC90: Human alphaherpesvirus 3, MRC5, read-out: ACV Efficacy EC90 (μM), VZV
# Cytomegalovirus (CMV) = assay: CMV infectious center assay in MRC-5 cells; type: cell-based, human cytomegalovirus (Towne strain); conditions: for EC50: Human betaherpesvirus 5, MRC5, read-out: ACV Efficacy EC50 (μM), CMV; for EC90: Human betaherpesvirus 5, MRC5, read-out: ACV Efficacy EC90 (μM), CMV
# vaccinia virus = assay: microbe, parasite or virus in culture; type: cell-based, vaccinia virus (WR strain); conditions: with or without n-docosanol
# Vero cells [4] = test system: Vero cells
# [5] = cited from earlier work
# HSV-2 [6] = assay: Inhibition of HSV-2 plaque formation in Vero cells; conditions: for EC50: Human alphaherpesvirus 2, Vero
# HSV-2 [7] = assay: Transmucosal suppository treatment of HSV-2 infection (Example 13); type: in vivo, human; conditions: 8 mM brassidyl alcohol suppositories
# Procedure: Suppositories containing 8 mM brassidyl alcohol in a nonionic detergent suspension, prepared essentially as in Examples 1 and 5, are formulated by adding anhydrous dextrose (300-400 mg/suppository), vegetable starch (300-400 mg/suppository) and magnesium stearate (5-10 mg/suppository) to produce a mixture that is compressed into suppositories (1-10 g per suppository) for vaginal insertion.
# Fifteen HSV-2 infected women with past histories of vaginal and/or perivaginal herpes lesions are provided with the suppositories and instructed to use one to four suppositories per day when herpes lesions or discomfort associated with herpes lesions are detected. The women are instructed to record their observations about the duration of the active infection, the severity of the lesions (erythema, papule, vesicle, edema or scab phases), the relative numbers of lesions detected to past occurrences of active infection, and the subjective degrees of pain or discomfort associated with the active infection episode. The women are instructed to use the suppositories as soon as active infection or symptoms of active infection are detected. The women have a past mean of 12 days duration for lesions that develop into vesicles if untreated.
# HSV-1 [8] = assay: Inhibition of HSV-1 plaque formation in Vero cells (brassidyl alcohol, TETRONIC-908 suspension); conditions: Human alphaherpesvirus 1, Vero, read-out: Percent Inhibition of Plaque Formation
# all cell lines tested = assay: Cytotoxicity in mammalian cell cultures; conditions: surfactant suspensions
# From the text: Three assays were used to quantitate the effects of aliphatic alcohols on cell survival and proliferation: 1) counting cells with a hemocytometer and determining the number of cells that exclude trypan blue; 2) measuring the incorporation of ^3H-thymidine into cellular DNA by adding ^3H-thymidine (from New England Nuclear) to the culture medium, lysing the cells with water and harvesting the DNA onto filter paper; and 3) measuring total cellular protein using a sulforhodamine assay adapted for use in 96-well microtiter plates (Skehan et al., J. Natl. Cancer Inst. […] All of these methods are well known cell viability and cytotoxicity assays.
# EBV = assay: Systemic treatment of EBV infection, infectious mononucleosis (Example 14); type: in vivo, human; conditions: 10 mM n-hexacosanol suspension injected
# Procedure: Ten young adults (age 14-19 yr) diagnosed with infectious mononucleosis (sore throat, fever, malaise, generalized lymphadenopathy, atypical mononucleosis T-lymphocytes in peripheral blood, a total white cell count of 12,000-18,000 in the blood) are treated systemically with a sterile aqueous suspension of a nonionic detergent surfactant containing 10 mM n-hexacosanol, prepared essentially as in Example 1. The suspension is injected (intramuscular or intravenous) in dosages of 0.1 mg/kg to 0.02 gm/kg of the aliphatic alcohol administered by a physician under clinical conditions. The symptoms of the individuals are then monitored daily for one week and weekly for three months for indications of infectious mononucleosis. All of the individuals test EBV-positive at the end of the study period as determined by detection of anti-EBV antibodies in their serum using standard immunoassays.
# HSV-2 [9] = assay: Topical treatment of HSV-2 in guinea pig model, number of vesicles (Example 9); type: in vivo, hairless guinea pigs; conditions: mean; for Number of Vesicles Day 2: 48 hr post-inoculation; for Number of Vesicles Day 3: 72 hr post-inoculation; for Number of Vesicles Day 4: 96 hr post-inoculation
# [10] = male, hairless, guinea pig, in vivo, 2 day
# Vero cells [11] = assay: Cytotoxicity to Vero cells (monolayer integrity, trypan blue exclusion)
smiles,measurement,setting,value
"Nc1nc2c(ncn2COCCO)c(=O)[nH]1 [ACV, 9-(2-hydroxy)-ethoxymethyl-guanine]",reduction of mean vesicle numbers,HSV-2 [1],50%
same,lowering of the ACV EC90,HSV-1 [2]; 3.3 mM n-docosanol,17 fold
same,reduction of the ACV EC90,HSV-1 [2]; 10 mM n-docosanol,40 fold
same,reduction of EC90 by n-docosanol,HSV-1 [2]; 15 mM n-docosanol,21 fold
same,EC90,"HSV-1 [2]; 15 mM n-docosanol, 500 PFU/culture, three days, read-out: EC90 for inhibition of HSV-1 PFU production in the presence of n-docosanol",0.9 µM
same,EC90,"HSV-1 [2]; Human alphaherpesvirus 1, Vero, 72 h, control cultures without n-docosanol, 500 PFU/culture, three days, read-out: EC90 for inhibition of HSV-1 PFU production, drug used alone",19 µM
same,EC90,"HSV-1 [2]; Human alphaherpesvirus 1, Vero, read-out: ACV EC90 for inhibition of HSV-1 production, 30 mM n-docosanol",< 0.1 µM
same,EC90,"HSV-1 [2]; Human alphaherpesvirus 1, Vero, read-out: ACV EC90 for inhibition of HSV-1 production, medium only or medium plus PLURONIC F-68, 500 PFU per culture, 72 hours",10 µM
same,EC50,[3]; Medium Only,3 µM
same,EC50,[3]; with Pluronic F-68,3 µM
same,EC50,"[3]; with n-Docosanol, 3.3 mM",1 µM
same,EC50,"[3]; with n-Docosanol, 10 mM",0.6 µM
same,EC50,"[3]; with n-Docosanol, 30 mM",0.3 µM
same,EC90,[3]; Medium Only,10 µM
same,EC90,[3]; with Pluronic F-68,10 µM
same,EC90,"[3]; with n-Docosanol, 3.3 mM",6 µM
same,EC90,"[3]; with n-Docosanol, 10 mM",4 µM
same,EC90,"[3]; with n-Docosanol, 30 mM",2 µM
same,reduction of ACV EC50's and EC90's,"Cytomegalovirus (CMV); CMV, n-docosanol concentrations of 10-30 mM",90%
same,EC50,Cytomegalovirus (CMV); Medium Only,30 µM
same,EC50,Cytomegalovirus (CMV); with Pluronic F-68,30 µM
same,EC50,"Cytomegalovirus (CMV); with n-Docosanol, 3.3 mM",8 µM
same,EC50,"Cytomegalovirus (CMV); with n-Docosanol, 10 mM",2 µM
same,EC50,"Cytomegalovirus (CMV); with n-Docosanol, 30 mM",2 µM
same,EC90,Cytomegalovirus (CMV); Medium Only,250 µM
same,EC90,Cytomegalovirus (CMV); with Pluronic F-68,250 µM
same,EC90,"Cytomegalovirus (CMV); with n-Docosanol, 3.3 mM",35 µM
same,EC90,"Cytomegalovirus (CMV); with n-Docosanol, 10 mM",25 µM
same,EC90,"Cytomegalovirus (CMV); with n-Docosanol, 30 mM",6 µM
same,sensitivity of vaccinia virus to ACV (in words),vaccinia virus,insensitive
same,"cellular toxicity, such as cytoplasmic vacuoles",Vero cells [4],not observed
same,steady state acyclovir plasma concentration,[5]; acyclovir 5 mg/kg by 1-hour infusions every 8 hours,approximately 10 μg/ml
same,maximum average acyclovir plasma concentration,[5]; oral acyclovir 500 mg 5 times a day,approximately 0.7 μg/ml
same,enhancement of ACV activity,HSV-2 [6]; 3 mM n-docosanol,25 fold
same,EC50,"HSV-2 [6]; 44 h, read-out: ACV 50% effective concentration (EC50), plaque formation, medium alone, 50 PFU HSV-2, scored 44 hours",0.005 mM
same,EC50,"HSV-2 [6]; read-out: ACV EC50, plaque formation",0.0002 mM
"CCCCCCCC/C=C/CCCCCCCCCCCCO [brassidyl alcohol, trans-13-docosen-1-ol]","mean duration of the HSV-2 active infection, five women",HSV-2 [7],3 to 4 days
same,inhibition at 1000 µM,HSV-1 [8],27%
same,inhibition at 2000 µM,HSV-1 [8],35%
same,inhibition at 4000 µM,HSV-1 [8],44%
same,inhibition at 8000 µM,HSV-1 [8],48%
CCCCCCCCCCCCCCCCCCCCCCCCCCO [n-hexacosanol],cytotoxicity of the suspensions (in words),all cell lines tested,same minimal level of cytotoxicity
same,time to decrease in atypical mononucleosis T-lymphocytes in peripheral blood,EBV,four
same,EC50,HSV-2 [6]; read-out: 50% Inhibition Concentration (mM),8.4 mM
CCCCCCCCCCCCCCCCCC(=O)O [stearic acid],Number of Vesicles Day 2,HSV-2 [9]; 10% w/w cream topically 3X/day from 24 hr post-inoculation,49
same,Number of Vesicles Day 3,HSV-2 [9]; 10% w/w cream topically 3X/day,17
same,Number of Vesicles Day 4,HSV-2 [9]; 10% w/w cream topically 3X/day,11
same,Number of Vesicles Day 2,HSV-2 [9]; 10% w/w cream topically 5X/day,49
same,Number of Vesicles Day 3,HSV-2 [9]; 10% w/w cream topically 5X/day,13
same,Number of Vesicles Day 4,HSV-2 [9]; 10% w/w cream topically 5X/day,5
same,Irritation Score Day 2,[10],0
same,inhibition of HSV-2 plaque formation relative to infected control cell cultures,"HSV-2 [6]; 11 μM and 22 μM in TETRONIC 908, 3.5 μM in ethanol",less than 10%
same,cytotoxicity by microscopic examination,Vero cells [11]; 11 μM and 22 μM suspensions in TETRONIC 908 and 3.5 μM solution in ethanol,No apparent toxicity
same,cytotoxicity by microscopic examination,Vero cells [11]; 44 μM TETRONIC 908 suspension and 35 μM ethanol solution,Moderate toxicity
same,cytotoxicity by microscopic examination,Vero cells [11]; suspensions and solutions of 88 μM to 350 μM,toxic
